Experiment [1] relates to human breast cancer cell line T47D (estrogen receptor positive). The experiment can be described thus: In vitro cytotoxicity assay (CCK-8), T47D. The settings on record: T47D cells, 48 hours incubation, read-out: 50% inhibition of cell growth concentration (IC50). Format: cell-based. The text has this: (§1) Materials: DMEM (medium), RPMI (medium), L-glutamine, penicillin, streptomycin and FBS (fetal bovine serum) were obtained from Gibco (NY, USA). Culture plasticware was purchased from Corning (MA, USA). […] All other chemicals used were of reagent grade and were purchased from Sigma or E. Merck (Germany).
(§2) Cell lines and cell cultures: The human breast cancer cell lines T47D and MDA-MB231 were obtained from American Type Culture Collection (ATCC). Of both cancer cells, T47D is estrogen receptor positive, and MDA-MB231 is estrogen receptor negative. Cells were cultured at 37° C. in RPMI medium containing 10% charcoal-dextran stripped fetal bovine serum for T47D cells and in DMEM medium containing 10% charcoal-dextran stripped fetal bovine serum for MDA-MB231 cells with 5% CO2. The cell proliferation was determined by counting the viable cells with trypan blue exclusion.
(§3) Cytotoxicity assay: Dispense 198 μl of cell suspension (20,000 cells for T47D per well and 10,000 cell for MDA-MB231 per well) in a 96-well plate and pre-incubate the plate for 24 hours in an incubator at 37° C. with humidified 5% CO2. […] After plate was incubated for 48 hours in the incubator, media were aspirated of and new media (100 μl) were added and incubated for 1 more hour. […] Measure the absorbance at 450 nm using a ELISA reader.

Experiment [2] has as its system human breast cancer cell line MDA-MB231 (estrogen receptor negative). Put plainly: In vitro cytotoxicity assay (CCK-8), MDA-MB231. Format: cell-based. The settings on record: MDA-MB-231, MDA-MB231 cells, 48 hours incubation, read-out: 50% inhibition of cell growth concentration (IC50).
Excerpt: as §1, §2, §3

The subject of experiment [3] is five different human cancer cells: lung (A549), ovary (SK-OV-3), skin (SK-MEL-2), central nervous system (XF498), large intestine (HCT). The settings on record: five human cancer cells A549, SK-OV-3, SK-MEL-2, XF498, HCT; Arch. Pharm. Res. 15, 356-359 (1992); cited from earlier work.
For experiment [4], the system named is ovariectomized female Wistar rats (osteoporosis caused by estrogen deficiency). The experiment can be described thus: Ovariectomized rat osteoporosis model, apparent bone density of tibia. Format: in vivo. The settings on record: two months, mean value, OVX group 1.549, Sham 1.589. The source says:
The purpose of this example is to show the potency of bakuchiol in treating osteoporosis, wherein ovary of a female rat is removed to stimulate osteoporosis caused by estrogen deficiency.
The female Wistar rats of 16 weeks old (unless specified in the other experiment description) were obtained from the stock reared by the Animal breeding center, National Scientific Council in Taipei. These rats were grouped by weights matched in order to distribute the physiological response variation from rats evenly into each group. These rats were grouping as follows: • Baseline group fed with no drug added food (n=8) • Sham operation group fed with no drug added food (Sham) (n=10) • Ovariectomy operation group fed with no drug added food (OVX) (n=8) • Ovariectomy operation group fed with Drug A (5 mg/kg) added food (OVX+A) (n=9) • Ovariectomy operation group fed with Drug B (15 mg/kg) added food (OVX+B) (n=9)
Ovariectomy (removal of ovaries) operation: Ovariectomy was induced using a protocol similar to that described by Wronski et al (Wronski et al, Endocrinology, 123(2), 681-86 (1988)). […]
The whole tibia and femur were stripped off attached muscles and ligaments after sacrifice. […] The weight of bone measured in the air was marked as W-air. […] The apparent bone density was calculated as [W-air/(W-air minus W-water)] […]

For experiment [5] the test system is unchanged. Put plainly: Ovariectomized rat osteoporosis model, bone histomorphometry of proximal tibia. Format: in vivo. The note with it: two months, mean value; for Erosion surface (ES/BS, %) of proximal tibia: OVX group 5.8%, Sham 4.7%; for Bone volume % (BV/TV) of proximal tibia head trabecular bone: OVX group 12.50%, Sham 29.50%. The text has this: The purpose of this example is to show the potency of bakuchiol in treating osteoporosis, wherein ovary of a female rat is removed to stimulate osteoporosis caused by estrogen deficiency. The female Wistar rats of 16 weeks old (unless specified in the other experiment description) were obtained from the stock reared by the Animal breeding center, National Scientific Council in Taipei. These rats were grouped by weights matched in order to distribute the physiological response variation from rats evenly into each group. These rats were grouping as follows: • Baseline group fed with no drug added food (n=8) • Sham operation group fed with no drug added food (Sham) (n=10) • Ovariectomy operation group fed with no drug added food (OVX) (n=8) • Ovariectomy operation group fed with Drug A (5 mg/kg) added food (OVX+A) (n=9) • Ovariectomy operation group fed with Drug B (15 mg/kg) added food (OVX+B) (n=9) Ovariectomy (removal of ovaries) operation: Ovariectomy was induced using a protocol similar to that described by Wronski et al (Wronski et al, Endocrinology, 123(2), 681-86 (1988)). During the experiments, the rats were housed in hanging grid cages in groups of two at 21° C. with a 12 hours dark cycle. Food (Rat-mouse diet III, adequate in 1% of calcium content and 1.2% of phosphate content, Purina, USA) was administered by paired feeding between the experimental and control groups. Pair-feeding was carried out by calculating the average amount of food intake in the Sham group. So give the same amount of food to the OVX, OVX+A (5 mg/kg), OVX+B (15 mg/kg) group animals the following day. These animals were fed with a period of two months except for the baseline group which were killed on the very day of doing ovariectomy or sham operation. Rats of OVX+A and OVX+B groups were fed with the usual food chuck but added certain amount of compound A and B in it respectively. Water was given ad libitum to all rats. The test drug was weighted according to dose of 5 mg/kg and 15 mg/kg, and added into the ususal food chuck powder and mixed with 10% starch paste. After fully mixed, these chuck powder were made into mass manually and dried by air flow oven. The food with added drug to rats was performed by single blind method. These labeling and bone histomorphometry assessment were done based on standard procedure in bone research (Lin et al, Calcif. Tissue Int., 67, 373-377 (2000)). Specimen were prestained with Villanueva bone stain, then […] and embedded in London resin. Undecalcified sections of 7 μm thick were cut using Jung-K microtome (Leica Ltd, USA) and treated with Villanueva stain for observation under light microscopy. Seven μm thick unstained sections were prepared for fluorescent microscopy and assessed with program Osteomeasure (3.0 version, Atlanta, USA). […]

[6] abbreviates: OVX + B group, 15 mg/kg in food.

Converted amounts (≈) assume the structure as drawn.

In the case of `C=C[C@@](C)(/C=C/c1ccc(O)cc1)CCC=C(C)C` [Bakuchiol, bakuchiol], the IC50 in experiment [1] was 5 µg/mL (≈ 19.5 µM); in experiment [2] it was 0.62 µg/mL (≈ 2.42 µM). The “average inhibitory concentration (IC50)” value in experiment [3] is 10˜15 μg/cc. The “Bone apparent density of tibia” value amounted to 1.582 gm/cm^3 in experiment [4] (OVX + A group, 5 mg/kg in food) and 1.587 gm/cm^3 in experiment [4] (setting [6]). Besides, the “Erosion surface (ES/BS, %) of proximal tibia” value in experiment [5] (OVX + A group, 5 mg/kg in food) was 5.0%; in experiment [5] (setting [6]), 4.8%. The “Bone volume % (BV/TV) of proximal tibia head trabecular bone” value in experiment [5] (OVX + A group, 5 mg/kg in food) was 19.80%; in experiment [5] (setting [6]), 20.11%.
